Consider five cell lines from the supplement of paper PMC10307832.

What all share (assay): relative viability (nuclei count vs DMSO), 5 days (fraction); higher = more cells survive
Compound in the test “Vemurafenib + Decitabine”: CCCS(=O)(=O)Nc1ccc(F)c(C(=O)c2c[nH]c3ncc(-c4ccc(Cl)cc4)cc23)c1F [Vemurafenib] + Nc1ncn([C@H]2C[C@H](O)[C@@H](CO)O2)c(=O)n1 [Decitabine] (partner 2 µM)
The gist of the method:
(§1)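 Nuclei were stained with Hoechst during a one-step fixation (final 0.05% Triton X-100, 1% formaldehyde, 1 ug/ml Hoechst) carried out 5 days after dosing, then counted on 4× images. The cells, lung cancer lines in 1536-well plates, had been dosed by pin tool the day after seeding with one drug alone or a fixed anchor-drug dose plus five library-drug doses (not always all listed) in √10 steps. Relative viability is the nuclei count in treated wells divided by that in vehicle wells, and each value is the median of duplicate plates.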

Compound in the test “Vemurafenib + Vorinostat”: CCCS(=O)(=O)Nc1ccc(F)c(C(=O)c2c[nH]c3ncc(-c4ccc(Cl)cc4)cc23)c1F [Vemurafenib] + O=C(CCCCCCC(=O)Nc1ccccc1)NO [Vorinostat] (partner 1 µM)
The gist of the method:
as §1

Compound in the test “OSI-027 + Dasatinib”: COc1cccc2cc(-c3nc([C@H]4CC[C@H](C(=O)O)CC4)n4ncnc(N)c34)[nH]c12 [OSI-027] + Cc1nc(Nc2ncc(C(=O)Nc3c(C)cccc3Cl)s2)cc(N2CCN(CCO)CC2)n1 [Dasatinib] (partner 0.075 µM)
In a few lines:
as §1

Compound in the test “Alpelisib + Navitoclax”: Cc1nc(NC(=O)N2CCC[C@H]2C(N)=O)sc1-c1ccnc(C(C)(C)C(F)(F)F)c1 [Alpelisib] + CC1(C)CCC(c2ccc(Cl)cc2)=C(CN2CCN(c3ccc(C(=O)NS(=O)(=O)c4ccc(N[C@H](CCN5CCOCC5)CSc5ccccc5)c(S(=O)(=O)C(F)(F)F)c4)cc3)CC2)C1 [Navitoclax] (partner 0.5 µM)
In a few lines: as §1

NCI-H2087: the relative viability with Vemurafenib + Decitabine (first compound 0.03162 µM) stood at 0.198; with Vemurafenib + Decitabine (first compound 0.1 µM) it was 0.273; with Vemurafenib + Decitabine (first compound 0.3162 µM), 0.346; in the test with Vemurafenib + Decitabine (first compound 1 µM), 0.336; with Vemurafenib + Vorinostat (first compound 0.03162 µM) it was 0.894; with Vemurafenib + Vorinostat (first compound 0.1 µM), 0.958. Moreover, the relative viability in the test with Vemurafenib + Vorinostat (first compound 0.3162 µM) came out at 0.531; in the test with Vemurafenib + Vorinostat (first compound 1 µM), 0.716; with OSI-027 + Dasatinib (first compound 0.01 µM) it was 0.856; with OSI-027 + Dasatinib (first compound 0.03162 µM), 0.937; with OSI-027 + Dasatinib (first compound 0.1 µM), 0.923; in the test with OSI-027 + Dasatinib (first compound 0.3162 µM), 0.611. Also, the relative viability with OSI-027 + Dasatinib (first compound 1 µM) was 0.453; in the test with Alpelisib + Navitoclax (first compound 0.04 µM), 1.01; with Alpelisib + Navitoclax (first compound 0.1265 µM) it was 1.09; with Alpelisib + Navitoclax (first compound 0.4 µM) it was 1.1; with Alpelisib + Navitoclax (first compound 1.265 µM) it was 0.767; in the test with Alpelisib + Navitoclax (first compound 4 µM), 0.991.
NCI-H520: the relative viability with Vemurafenib + Decitabine (first compound 0.03162 µM) amounted to 0.463; in the test with Vemurafenib + Decitabine (first compound 0.1 µM), 0.482; with Vemurafenib + Decitabine (first compound 0.3162 µM), 0.479; with Vemurafenib + Decitabine (first compound 1 µM), 0.519; with Vemurafenib + Vorinostat (first compound 0.03162 µM), 0.68; with Vemurafenib + Vorinostat (first compound 0.1 µM), 0.714. Further, the relative viability with Vemurafenib + Vorinostat (first compound 0.3162 µM) was 0.718; with Vemurafenib + Vorinostat (first compound 1 µM) it was 0.497; with OSI-027 + Dasatinib (first compound 0.01 µM) it was 0.254; with OSI-027 + Dasatinib (first compound 0.03162 µM), 0.192; with OSI-027 + Dasatinib (first compound 0.1 µM), 0.143; with OSI-027 + Dasatinib (first compound 0.3162 µM), 0.133. The relative viability in the test with OSI-027 + Dasatinib (first compound 1 µM) amounted to 0.129; in the test with Alpelisib + Navitoclax (first compound 0.04 µM) it was 1.02; in the test with Alpelisib + Navitoclax (first compound 0.1265 µM), 0.905; in the test with Alpelisib + Navitoclax (first compound 0.4 µM) it was 1.07; with Alpelisib + Navitoclax (first compound 1.265 µM), 1.03; with Alpelisib + Navitoclax (first compound 4 µM), 0.822.
Consider HCC-78, for which the relative viability worked out at 0.61 with Vemurafenib + Decitabine (first compound 0.03162 µM); 0.57 with Vemurafenib + Decitabine (first compound 0.1 µM); 0.705 with Vemurafenib + Decitabine (first compound 0.3162 µM); 0.744 in the test with Vemurafenib + Decitabine (first compound 1 µM); 0.425 with Vemurafenib + Vorinostat (first compound 0.03162 µM); 0.351 with Vemurafenib + Vorinostat (first compound 0.1 µM). The relative viability in the test with Vemurafenib + Vorinostat (first compound 0.3162 µM) came out at 0.79; in the test with Vemurafenib + Vorinostat (first compound 1 µM), 0.4; with OSI-027 + Dasatinib (first compound 0.01 µM) it was 0.329; with OSI-027 + Dasatinib (first compound 0.03162 µM), 0.356; with OSI-027 + Dasatinib (first compound 0.1 µM), 0.3; with OSI-027 + Dasatinib (first compound 0.3162 µM) it was 0.266. In addition, the relative viability in the test with OSI-027 + Dasatinib (first compound 1 µM) was 0.325; with Alpelisib + Navitoclax (first compound 0.04 µM) it was 0.745; in the test with Alpelisib + Navitoclax (first compound 0.1265 µM) it was 0.609; in the test with Alpelisib + Navitoclax (first compound 0.4 µM), 0.738; with Alpelisib + Navitoclax (first compound 1.265 µM), 0.373; in the test with Alpelisib + Navitoclax (first compound 4 µM), 0.518.
For the cell line COR-L 105, the relative viability was 0.556 in the test with Vemurafenib + Decitabine (first compound 0.03162 µM); 0.645 with Vemurafenib + Decitabine (first compound 0.3162 µM); 0.651 with Vemurafenib + Decitabine (first compound 1 µM); 0.838 with Vemurafenib + Vorinostat (first compound 0.03162 µM); 0.903 in the test with Vemurafenib + Vorinostat (first compound 0.3162 µM); 0.815 in the test with Vemurafenib + Vorinostat (first compound 1 µM). Also, the relative viability worked out at 0.322 with OSI-027 + Dasatinib (first compound 0.01 µM); 0.328 with OSI-027 + Dasatinib (first compound 0.03162 µM); 0.299 with OSI-027 + Dasatinib (first compound 0.1 µM); 0.236 with OSI-027 + Dasatinib (first compound 0.3162 µM); 0.243 with OSI-027 + Dasatinib (first compound 1 µM); 0.607 with Alpelisib + Navitoclax (first compound 0.04 µM). Also, the relative viability came out at 0.633 in the test with Alpelisib + Navitoclax (first compound 0.1265 µM), 0.728 in the test with Alpelisib + Navitoclax (first compound 0.4 µM), 0.615 with Alpelisib + Navitoclax (first compound 1.265 µM) and 0.554 in the test with Alpelisib + Navitoclax (first compound 4 µM).
For the cell line NCI-H1437, the relative viability with Vemurafenib + Decitabine (first compound 0.03162 µM) came to 0.523; with Vemurafenib + Decitabine (first compound 0.1 µM), 0.565; with Vemurafenib + Decitabine (first compound 0.3162 µM), 0.531; in the test with Vemurafenib + Decitabine (first compound 1 µM), 0.579; with Vemurafenib + Vorinostat (first compound 0.03162 µM), 0.798; with Vemurafenib + Vorinostat (first compound 0.1 µM) it was 0.825. The relative viability was 0.873 with Vemurafenib + Vorinostat (first compound 0.3162 µM); 0.945 with Vemurafenib + Vorinostat (first compound 1 µM); 0.421 with OSI-027 + Dasatinib (first compound 0.01 µM); 0.441 with OSI-027 + Dasatinib (first compound 0.03162 µM); 0.32 in the test with OSI-027 + Dasatinib (first compound 0.1 µM); 0.373 with OSI-027 + Dasatinib (first compound 0.3162 µM). For the same cell line, the relative viability was 0.192 with OSI-027 + Dasatinib (first compound 1 µM); 1.09 with Alpelisib + Navitoclax (first compound 0.04 µM); 1.13 with Alpelisib + Navitoclax (first compound 0.1265 µM); 1.03 with Alpelisib + Navitoclax (first compound 0.4 µM); 1.01 with Alpelisib + Navitoclax (first compound 1.265 µM); 1.03 in the test with Alpelisib + Navitoclax (first compound 4 µM).
